In patent US20240191267A1, “Tropane Alkaloid Transporters and Methods of Making Tropane Alkaloids Using the Same” (priority 2021, published 2024):
Values joined by “and” are separate entries in the source; they are usually repeats but may differ in a detail not shown here. Equal values may be shown once.

What was measured:
AbLP1 = assay: Yeast toxicity assay and growth curves, AD1-8 expressing AbLP1
From the text: (§1) Solid lines and shaded/hatched bars respectively indicate mean and standard deviation of n=3 biologically independent samples.
(§2) Heatmap values were extracted from mean growth curves in FIG. 80.
as §1, §1
(§3) Yeast toxicity assays and growth curves. Candidate transporters for use in non-plant cells for the purpose of enhancing or modulating metabolite localization may be characterized in any suitable strain of the non-plant organism of interest. […] An example protocol for the characterization of TA transporters in yeast is provided as follows. […] Strain AD1-8 is transformed as described earlier with a low-copy plasmid harboring a constitutively expressed transporter candidate or blue fluorescent protein as negative control and a suitable auxotrophic marker, such as URA3, LEU2, TRP1, or […]. Transformants are inoculated into 1 mL of selective YNB-G media and grown overnight (˜14-18 h) at 30° C. and 460 rpm. […] Culture densities (OD600) are then measured every 30 min for 48 h in a suitable plate reader, such as a SpectraMax i3 plate reader (Molecular Devices), with chamber temperature 30° C. and orbital shaking every 30 min. […]

AbPUP1 = assay: Yeast toxicity assay and growth curves, AD1-8 expressing AbPUP1
From the text: as §1, §2, §1, §1, §3

Strain AD1-8 = details: selective media
From the text: as §1, §2, §3

[1] = molecular target: T1, AbUGT (UDP-glucosyltransferase 84A27) (Atropa belladonna, UniProt A0A3B6XRM0); assay: Conversion of fed phenylpropanoids to glucosides by yeast expressing AbUGT; assay type: cell-based; details: AbUGT from low-copy plasmid in CSY1251; 500 μM substrate, 72 h, selective media
T1 construct: expressed in transfected cells; host or cells: Saccharomyces cerevisiae CSY1251 (tropine-producing, CEN.PK2-derived), low-copy plasmid
T1 sequence (A0A3B6XRM0 1-490): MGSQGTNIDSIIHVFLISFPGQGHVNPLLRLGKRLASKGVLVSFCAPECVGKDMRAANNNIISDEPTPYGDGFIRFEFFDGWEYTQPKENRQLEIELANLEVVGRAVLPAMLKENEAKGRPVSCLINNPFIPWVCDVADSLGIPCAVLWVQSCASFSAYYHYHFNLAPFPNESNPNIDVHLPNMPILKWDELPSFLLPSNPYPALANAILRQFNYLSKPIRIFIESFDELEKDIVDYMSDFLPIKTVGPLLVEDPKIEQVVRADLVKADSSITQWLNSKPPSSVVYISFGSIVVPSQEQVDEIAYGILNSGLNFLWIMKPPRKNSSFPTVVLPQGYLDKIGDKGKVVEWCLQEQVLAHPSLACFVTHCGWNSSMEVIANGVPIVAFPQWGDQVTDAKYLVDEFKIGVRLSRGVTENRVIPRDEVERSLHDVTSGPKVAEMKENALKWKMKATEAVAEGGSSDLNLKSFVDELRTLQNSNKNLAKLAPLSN
Method: (B) Heatmap of percent conversion of fed phenylpropanoids to glucosides by yeast engineered for UGT84A27 expression. UGT84A27 orthologs or a BFP negative control were expressed from low-copy plasmids in CSY1251. Transformed cells were cultured in selective media supplemented with 500 μM PLA, CA, or FA for 72 h prior to LC-MS/MS analysis. Data represent the mean of n=3 biologically independent samples ±standard deviation.

[2] = tested on: UGT84A27 orthologs (AbUGT, BsUGT, DmUGT); assay type: cell-based, Atropa belladonna, Brugmansia sanguinea, D. metel; details: all three UGT orthologs, low-copy plasmids in CSY1251; 500 μM substrate, 72 h
Method: FIG. 33 illustrates the substrate specificity of UDP-glucosyltransferase 84A27 (UGT84A27) orthologs from TA-producing Solanaceae expressed in engineered yeast. […] (A) Phenylpropanoids tested as glucose (Glu) acceptors for UGT84A27 in engineered yeast. […] (B) Heatmap of percent conversion of fed phenylpropanoids to glucosides by yeast engineered for UGT84A27 expression. UGT84A27 orthologs or a BFP negative control were expressed from low-copy plasmids in CSY1251. Transformed cells were cultured in selective media supplemented with 500 μM PLA, CA, or FA for 72 h prior to LC-MS/MS analysis. Data represent the mean of n=3 biologically independent samples ±standard deviation.

[3] = tested on: AbUGT84A27 active site mutants; assay: Conversion of fed phenylpropanoids to glucosides by yeast expressing AbUGT active site mutants; assay type: cell-based, Atropa belladonna; details: F130Y, L205F, I292Q point mutants of AbUGT in CSY1251; 500 μM substrate, 72 h
Method: FIG. 36 illustrates the substrate specificity of AbUGT84A27 active site mutants. […] AbUGT wild-type, active site mutants, or a BFP negative control were expressed from low-copy plasmids in CSY1251. Transformed cells were cultured in selective media supplemented with 500 μM PLA, CA, or FA for 72 h prior to LC-MS/MS analysis. Data represent the mean of n=3 biologically independent samples ±standard deviation.
6.1) As wild-type yeast produce only trace levels of PLA, production of this TA precursor must be increased to permit sufficient accumulation of downstream TAs. To improve PLA production, heterologous phenylpyruvate reductases (PPRs) may be expressed in the engineered host cells. PPR orthologs from E. coli, Lactobacillus, A. belladonna, and Wickerhamia fluorescens, as well as lactate dehydrogenases (LDHs) from Bacillus and Lactobacillus with reported activity on 3-phenylpyruvate (Table 1) were screened for activity in yeast by expressing each enzyme from a low-copy plasmid in CSY1251 and measuring PLA production by LC-MS/MS after 72 h of growth in selective media. […] As such, WfPPR was selected for integration into CSY1251 to make strain CSY1287. […] 6.4.2.1) Extra copies of PGM2 and UGP1 were expressed from low-copy plasmids in CSY1288 and PLA glucoside production was measured following 72 h of growth in selective media. […]

## CN1[C@@H]2CC[C@H]1C[C@@H](O)C2 [tropine]
AbLP1; AD1-8 expressing AbLP1, tropine only at 1 mM
  sensitivity to alkaloid conferred by transporter expression: not
AbPUP1; AD1-8 expressing AbPUP1, tropine only at 1 mM
  sensitivity to alkaloid conferred by transporter expression: not
Strain AD1-8; concentrations above 1 mM
  growth of AD1-8 at tested concentrations higher than 1 mM: severely retarded the growth

## O=C(O)[C@H](O)Cc1ccccc1 [PLA, (D)-3-phenyllactic acid]
[1]
  percent conversion of fed phenylpropanoid to glucoside: < 3% and 2.7%
[2]
  percent conversion of fed phenylpropanoid to glucoside: < 3%
[3]
  percent conversion of fed phenylpropanoid to glucoside: < 3%

## CN1[C@@H]2CC[C@H]1CC(OC(=O)[C@H](O)Cc1ccccc1)C2 (stereo partly shown) [littorine]
AbLP1; AD1-8 expressing AbLP1 from low-copy plasmid, selective media, 0-20 mM alkaloid
  θHM, ratio of time for half-maximal OD600 at 20 mM relative to at 0 mM: ~1.1
AbPUP1; AD1-8 expressing AbPUP1 from low-copy plasmid, selective media, 0-20 mM alkaloid
  θHM, ratio of time for half-maximal OD600 at 20 mM relative to at 0 mM: ~1.3
Strain AD1-8; AD1-8 expressing BFP control from low-copy plasmid, 0-20 mM alkaloid
  θHM, ratio of time for half-maximal OD600 at 20 mM relative to at 0 mM: ~1.0

## O=C(O)/C=C/c1ccccc1 [cinnamic acid, trans-cinnamic acid]
[1]
  percent conversion of fed phenylpropanoid to glucoside: ~60%
